In patent US8680052B1, “Methods of treating, reducing the incidence of, and/or preventing ischemic events” (The Medicines Company, priority 2013, dated 2014):
Like-named read-outs stand apart in the source and are kept apart here.

System: patients with acute coronary syndromes undergoing PCI
[1] = 48-hour, MITT Without STEMI, exploratory

Experimental: Patients were eligible for enrollment if they had stable angina, unstable angina, or non-ST-segment elevation (NSTE) MI with obstructive coronary artery disease and were scheduled to undergo PCI.
The infusion began within 30 minutes prior to PCI and continued for at least 2 hours or until the conclusion of the index procedure, whichever was longer. At the treating physician's discretion, the infusion could be continued for 4 hours.
All patients received aspirin 75-325 mg per local site standards. Adjunctive anticoagulants (unfractionated heparin, low molecular weight heparin, bivalirudin, or fondaparinux) and the procedural use of glycoprotein IIb/IIIa inhibitors were determined by the treating physician.
The primary efficacy endpoint was the 48-hour composite of all-cause mortality, MI, or ischemia-driven revascularization. Prespecified secondary efficacy endpoints included the composite of mortality or MI at 48 hours and 30 days; the composite of mortality, MI, or ischemia-driven revascularization at 30 days; the components of the composite endpoints at 48 hours and 30 days; stroke at 48 hours; abrupt closure, threatened abrupt closure, need for urgent coronary artery bypass grafting, or unsuccessful procedure during the index PCI; acute (24 hours) and 48 hours stent thrombosis; and all-cause mortality at 6 months and 1 year.
Rates of MI and ischemia-driven revascularization up to 30 days following the index procedure were assessed. Ischemia-driven revascularization was defined as symptoms of myocardial ischemia leading to urgent (within 24 hours of the last episode of ischemia) revascularization, which must have occurred after the index procedure concluded (i.e., guidewire removal). New electrocardiographic changes, acute pulmonary edema, ventricular arrhythmias, or hemodynamic instability could also constitute evidence of ischemia.
MI was defined by a new Q wave (duration >0.03 seconds) in two contiguous electrocardiographic leads or elevations in creatine kinase (CK) and CK-MB, including a rise of CK-MB≧3 times the local upper limit or normal and, when biomarkers were elevated prior to PCI, an additional 50% above baseline. One baseline troponin measurement was required for patients undergoing urgent PCI. Measurements of CK-MB were obtained at 2, 10, 17, and 24 hours post-PCI.
The primary efficacy analysis was to be determined in the modified intent-to-treat (mITT) population, defined as all randomized patients (excluding STEMI cohort) who received at least one dose of study drug and underwent the index PCI. The safety population consisted of all randomized patients who received any study drug. Patients in the safety analyses were assigned to a treatment arm based on treatment received, not as randomized.

SMILES: COC(=O)[C@H](c1ccccc1Cl)N1CCc2sccc2C1 [Clopidogrel, clopidogrel, reference compound]
- All-cause mortality (48-hour, MITT Without STEMI): 5 (0.1)
- IDR (48-hour, MITT Without STEMI): 23 (0.6)
- MI (48-hour, MITT Without STEMI): 256 (6.6)
- Mortality/MI/IDR (primary endpoint) (48-hour, MITT Without STEMI): 276 (7.1)
- Q-wave MI (48-hour, MITT Without STEMI): 10 (0.3)
- Stent thrombosis (48-hour, MITT Without STEMI): 11 (0.3)
- Stroke (48-hour, MITT Without STEMI): 7 (0.2)
- Mortality/Q-wave MI/IDR [1]: 34 (0.9)
- Mortality/Q-wave MI/Stent thrombosis [1]: 23 (0.6)
- All-cause mortality (48 hours, ITT): 11 (0.2) no. (%)
- IDR (48 hours, ITT): 31 (0.7) no. (%)
- MI (48 hours, ITT): 265 (6.0) no. (%)
- Mortality/MI/IDR (48 hours, ITT): 297 (6.7) no. (%)
- Mortality/Q-wave MI/IDR (48 hours, ITT): 48 (1.1) no. (%)
- Mortality/Q-wave MI/Stent thrombosis (48 hours, ITT): 33 (0.7) no. (%)
- Q-wave MI (48 hours, ITT): 10 (0.2) no. (%)
- Stent thrombosis (48 hours, ITT): 15 (0.3) no. (%)
- Stroke (48 hours, ITT): 8 (0.2) no. (%)
- All-cause mortality (48 hours, ITT With STEMI): 5 (1.0) no. (%)
- IDR (48 hours, ITT With STEMI): 8 (1.6) no. (%)
- MI (48 hours, ITT With STEMI): 9 (1.8) no. (%)
- Mortality/MI/IDR (48 hours, ITT With STEMI): 20 (3.9) no. (%)
- Mortality/Q-wave MI/IDR (48 hours, ITT With STEMI): 13 (2.6) no. (%)
- Mortality/Q-wave MI/Stent thrombosis (48 hours, ITT With STEMI): 9 (1.8) no. (%)
- Q-wave MI (48 hours, ITT With STEMI): 0 (0.0) no. (%)
- Stent thrombosis (48 hours, ITT With STEMI): 4 (0.8) no. (%)
- Stroke (48 hours, ITT With STEMI): 1 (0.2) no. (%)
- All-cause mortality (48 hours, ITT Without STEMI): 6 (0.2) no. (%)
- IDR (48 hours, ITT Without STEMI): 23 (0.6) no. (%)
- MI (48 hours, ITT Without STEMI): 256 (6.5) no. (%)
- Mortality/MI/IDR (48 hours, ITT Without STEMI): 277 (7.1) no. (%)
- Mortality/Q-wave MI/IDR (48 hours, ITT Without STEMI): 35 (0.9) no. (%)
- Mortality/Q-wave MI/Stent thrombosis (48 hours, ITT Without STEMI): 24 (0.6) no. (%)
- Q-wave MI (48 hours, ITT Without STEMI): 10 (0.3) no. (%)
- Stent thrombosis (48 hours, ITT Without STEMI): 11 (0.3) no. (%)
- Stroke (48 hours, ITT Without STEMI): 7 (0.2) no. (%)
- All-cause mortality (48 hours, MITT): 9 (0.2) no. (%)
- IDR (48 hours, MITT): 30 (0.7) no. (%)
- MI (48 hours, MITT): 264 (6.1) no. (%)
- Mortality/MI/IDR (48 hours, MITT): 293 (6.8) no. (%)
- Mortality/Q-wave MI/IDR (48 hours, MITT): 45 (1.0) no. (%)
- Mortality/Q-wave MI/Stent thrombosis (48 hours, MITT): 31 (0.7) no. (%)
- Q-wave MI (48 hours, MITT): 10 (0.2) no. (%)
- Stent thrombosis (48 hours, MITT): 15 (0.3) no. (%)
- Stroke (48 hours, MITT): 7 (0.2) no. (%)
- All-cause mortality (48 hours, MITT With STEMI): 4 (0.9) no. (%)
- IDR (48 hours, MITT With STEMI): 7 (1.6) no. (%)
- MI (48 hours, MITT With STEMI): 8 (1.8) no. (%)
- Mortality/MI/IDR (48 hours, MITT With STEMI): 17 (3.8) no. (%)
- Mortality/Q-wave MI/IDR (48 hours, MITT With STEMI): 11 (2.5) no. (%)
- Mortality/Q-wave MI/Stent thrombosis (48 hours, MITT With STEMI): 8 (1.8) no. (%)
- Q-wave MI (48 hours, MITT With STEMI): 0 (0.0) no. (%)
- Stent thrombosis (48 hours, MITT With STEMI): 4 (0.9) no. (%)
- Stroke (48 hours, MITT With STEMI): 0 (0.0) no. (%)
- All-cause mortality (48 hours, MITT Without STEMI): 5 (0.1) no. (%)
- IDR (48 hours, MITT Without STEMI): 23 (0.6) no. (%)
- MI (48 hours, MITT Without STEMI): 256 (6.6) no. (%)
- Mortality/MI/IDR (Prespecified primary endpoint) (48 hours, MITT Without STEMI): 276 (7.1) no. (%)
- Mortality/Q-wave MI/IDR (48 hours, MITT Without STEMI): 34 (0.9) no. (%)
- Mortality/Q-wave MI/Stent thrombosis (48 hours, MITT Without STEMI): 23 (0.6) no. (%)
- Q-wave MI (48 hours, MITT Without STEMI): 10 (0.3) no. (%)
- Stent thrombosis (48 hours, MITT Without STEMI): 11 (0.3) no. (%)
- Stroke (48 hours, MITT Without STEMI): 7 (0.2) no. (%)
- primary composite of all-cause mortality, MI, or ischemia-driven revascularization (48 hours, MITT Without STEMI): 7.1%
- All-cause mortality (48 hours, Safety population): 9 (0.2) no. (%)
- IDR (48 hours, Safety population): 30 (0.7) no. (%)
- MI (48 hours, Safety population): 265 (6.1) no. (%)
- Mortality/MI/IDR (48 hours, Safety population): 294 (6.7) no. (%)
- Mortality/Q-wave MI/IDR (48 hours, Safety population): 45 (1.0) no. (%)
- Mortality/Q-wave MI/Stent thrombosis (48 hours, Safety population): 31 (0.7) no. (%)
- Q-wave MI (48 hours, Safety population): 10 (0.2) no. (%)
- Stent thrombosis (48 hours, Safety population): 15 (0.3) no. (%)
- Stroke (48 hours, Safety population): 7 (0.2) no. (%)
- All-cause mortality (30 days, ITT): 47 (1.1) no. (%)
- IDR (30 days, ITT): 69 (1.6) no. (%)
- MI (30 days, ITT): 293 (6.7) no. (%)
- Mortality/MI/IDR (30 days, ITT): 373 (8.5) no. (%)
- Mortality/Q-wave MI/IDR (30 days, ITT): 119 (2.7) no. (%)
- Mortality/Q-wave MI/Stent thrombosis (30 days, ITT): 82 (1.9) no. (%)
- Q-wave MI (30 days, ITT): 15 (0.3) no. (%)
- Stent thrombosis (30 days, ITT): 30 (0.7) no. (%)
- All-cause mortality (30 days, ITT With STEMI): 16 (3.2) no. (%)
